# Legend:
# [1] = tested on: human leukaemia HL-60 cells; assay: EC50 on proliferation of HL-60 cells (MTT, 48 h); type: cell-based; settings: read-out: HL-60 EC50 (nmol)
# Method: (§1) EC50 values of the compounds according to the present invention on the proliferation of human leukaemia HL-60 cells and Bel-7402 cells were determined by using the following method, and the results are shown in Table 2.
# Testing method for EC50 values on the human leukaemia HL-60 cells: The human leukaemia HL-60 cells were cultured in vitro. The cells were collected after growth to logarithmic phase, and centrifugated at 1000 rpm for 5 min. The supernatant was discarded and the cells were suspended in an appropriate amount of medium. The cell concentration was adjusted to 1.2×10^4/mL. The cells were seeded into 96-well culture plates in 90 μL per well. For each well of the drug treatment groups, 10 μL of medium-diluted drug was added, whereas for the blank control groups, the same amount of medium was added. Every testing drug was set up for three parallel wells, and also three control wells with only testing drugs (without cell) were set up. Negative control groups were medium containing 0.5% DMSO. After the plate was incubated in an incubator for 48 h, 10 μL of 5 mg/mL MTT was added into each well, and then the plate was placed for 3 h at 37° C. 100 μL of ternary solution (5% SDS, 10 mM HCl, 5% isopropanol) was added into each well, and the plate was kept at 37° C. overnight. The absorbance (OD) was measured at 595 nm/620 nm. The EC50 values were calculated by using Prism Graphpad statistical software.
# Bel-7402 cells = assay: EC50 on proliferation of Bel7402 cells (SRB, 48 h); type: cell-based; settings: Homo sapiens, read-out: Bel7402 EC50 (nmol)
# Method: as §1
# Testing method for ED50 values on the human Be17402ce11: After the cells were incubated with the addition of the drugs for 48 h, the plates were taken out. 50 μL of pre-cooled 500 g/L trichloroacetic acid was added into each well. The plates were kept in 4° C. refrigerator for 1 h after standing for 5 min, taken out, washed with deionized water for 5 times, and dried in the air. After the plates were completely dried, 100 μL of 0.4% SRB (formulated in 1% acetic acid) was added into each well. Following staining for 20 min, the staining solution was discarded, and the residue was washed with 1% acetic acid for 5 times to remove the uncombined dye. After being dried in the air, the residue was dissolved in 150 μL of 10 mmol/L unbuffered
# Tris basic solution (pH=10.5), and oscillated in an oscillator for 5 min. The absorbance of each well at 490 nm was measured with TECAN enzyme mark instrument. The cells in background control plates were treated in the same way for measuring OD490. The EC50 values were calculated by using Prism Graphpad statistical software.
# HL-60 human leukaemia = assay: Inhibition of tumor cell proliferation at 10 μM, Model A: MTT method; type: cell-based; settings: HL-60, MTT method, read-out: Model A Inhibitory rate (%)
# From the text: (§2) The evaluation of the compounds according to the present invention on the inhibition rate of the proliferation of four different tumor cells, using the routine method for anti-tumor activity tests in the pharmaceutical filed, for example the method described in the following literature: (J. Immuno/Method, 1983, 65, 55).
# [2] = tested on: BGC-823 human gastric cancer; assay: Inhibition of tumor cell proliferation at 10 μM, Model B: SRB method; type: cell-based; settings: BGC-823, SRB method, read-out: Model B Inhibitory rate (%)
# From the text: as §2
# [3] = tested on: Bel-7402 human liver cancer; assay: Inhibition of tumor cell proliferation at 10 μM, Model C: SRB method; type: cell-based; settings: Bel-7402, SRB method, read-out: Model C Inhibitory rate (%)
# From the text: as §2
# [4] = tested on: KB human nasopharyngeal cancer; assay: Inhibition of tumor cell proliferation at 10 μM, Model D: SRB method; type: cell-based; settings: read-out: Model D Inhibitory rate (%)
# From the text: as §2
compound,measurement,setting,value
"COc1ncccc1CNC(=S)SCCC#N [Compound 20, 2-cyanoethyl[(2-methoxypyridin-3-yl)methyl]dithiocarbamate]",EC50,[1],0.8 nM
same,EC50,Bel-7402 cells,7.67 nM
same,melting point,,88 to 92 °C
"N#CCCSC(=S)NCc1cnccn1 [Compound 39, 2-cyanoethyl(pyrazin-2-ylmethyl)dithiocarbamate]",EC50,[1],> 1000 nM
same,EC50,Bel-7402 cells,> 1000 nM
same,melting point,,96 to 99 °C
"N#CCCSC(=S)NCc1ccco1 [Compound 3, 2-cyanoethyl(furan-2-ylmethyl)dithiocarbamate]",inhibition at 10 µM,HL-60 human leukaemia,24.6%
same,inhibition at 10 µM,[2],29.5%
same,inhibition at 10 µM,[3],68.2%
same,inhibition at 10 µM,[4],55.1%
"N#CCCSC(=S)NCc1cnc(N2CCOCC2)nc1 [Compound 41, 2-cyanoethyl[(2-morpholinopyrimidin-5-yl)methyl]dithiocarbamate]",EC50,[1],5.03 nM
same,EC50,Bel-7402 cells,22.4 nM
same,melting point,,151 to 154 °C
"N#CCCSC(=S)NCc1nnc(-c2ccccc2)s1 [Compound 45, 2-cyanoethyl[(5-phenyl-1,3,4-thiadiazol-2-yl)methyl]dithiocarbamate]",EC50,[1],11.8 nM
same,EC50,Bel-7402 cells,18.6 nM
same,melting point,,156 to 158 °C
"COC(=O)c1ccc(CNC(=S)SCCC#N)cn1 [Compound 21, 2-cyanoethyl[(6-methoxycarbonylpyridin-3-yl)methyl]dithiocarbamate]",EC50,[1],6.93 nM
same,EC50,Bel-7402 cells,116 nM
same,melting point,,106 to 112 °C
"CN(Cc1cccnc1)C(=S)SCCC#N [Compound 29, 2-cyanoethyl N-methyl-(pyridin-3-ylmethyl)dithiocarbamate]",EC50,[1],134 nM
same,EC50,Bel-7402 cells,2.2 nM
"N#CCCSC(=S)NCc1ccc(-c2ccco2)nc1 [Compound 25, 2-cyanoethyl{[6-(furan-2-yl)pyridin-3-yl]methyl}dithiocarbamate]",EC50,[1],4.78 nM
same,EC50,Bel-7402 cells,21.1 nM
same,melting point,,118 to 120 °C
"Cc1cc(CNC(=S)SCCC#N)n(C)n1 [Compound 37, 2-cyanoethyl[(1,3-dimethyl-1H-pyrazol-5-yl)methyl]dithiocarbamate]",EC50,[1],4.17 nM
same,EC50,Bel-7402 cells,4.26 nM
"Cc1cc(C)c(CNC(=S)SCCC#N)cn1 [Compound 22, 2-cyanoethyl[(4,6-dimethylpyridin-3-yl)methyl]dithiocarbamate]",EC50,[1],1.72 nM
same,EC50,Bel-7402 cells,23.4 nM
same,melting point,,138 to 142 °C
"N#CCCSC(=S)NCc1nnc(-c2ccccc2)o1 [Compound 40, 2-cyanoethyl[(5-phenyl-1,3,4-oxadiazol-2-yl)methyl]dithiocarbamate]",EC50,[1],14.2 nM
same,EC50,Bel-7402 cells,25.7 nM
same,melting point,,148 to 152 °C
"COc1ccc(CNC(=S)SCCC#N)cn1 [Compound 33, 2-cyanoethyl[(6-methoxypyridin-3-yl)methyl]dithiocarbamate]",EC50,[1],0.813 nM
same,EC50,Bel-7402 cells,109 nM
same,melting point,,90 to 92 °C
"NS(=O)(=O)CCSC(=S)NCc1ccco1 [Compound 5, 2-sulfamoylethyl(furan-2-ylmethyl)dithiocarbamate]",inhibition at 10 µM,HL-60 human leukaemia,17.3%
same,inhibition at 10 µM,[2],17.2%
same,inhibition at 10 µM,[3],17.5%
same,inhibition at 10 µM,[4],31.6%
"NS(=O)(=O)CCSC(=S)NCc1cccnc1 [Compound 13, 2-sulfamoylethyl(pyridin-3-ylmethyl)dithiocarbamate]",inhibition at 10 µM,HL-60 human leukaemia,-4.25%
same,inhibition at 10 µM,[2],18.4%
same,inhibition at 10 µM,[3],5.87%
same,inhibition at 10 µM,[4],17.6%
"N#CCCSC(=S)NCc1ccc(Oc2ccccc2)nc1 [Compound 27, 2-cyanoethyl[(6-phenoxypyridin-3-yl)methyl]dithiocarbamate]",EC50,[1],0.548 nM
same,EC50,Bel-7402 cells,48.9 nM
"N#CCCSC(=S)NCc1cncnc1 [Compound 36, 2-cyanoethyl(pyrimidin-5-ylmethyl)dithiocarbamate]",melting point,,168 to 171 °C
"CC(NC(=S)SCCC#N)c1cccnc1 (centres unmarked) [Compound 32, 2-cyanoethyl[1-(pyridin-3-yl)ethyl]dithiocarbamate]",EC50,[1],3.28 nM
same,EC50,Bel-7402 cells,64.8 nM
"C[S+]([O-])CCSC(=S)NCc1cccnc1 (centres unmarked) [Compound 15, 2-(methylsulfinyl)ethyl(pyridin-3-ylmethyl)dithiocarbamate]",inhibition at 10 µM,HL-60 human leukaemia,26.1%
same,inhibition at 10 µM,[2],9.95%
same,inhibition at 10 µM,[3],-2.37%
same,inhibition at 10 µM,[4],3.58%
"N#CCCSC(=S)NCc1ccc[nH]1 [Compound 46, 2-cyanoethyl[(1H-pyrrol-2-yl)methyl]dithiocarbamate]",EC50,[1],282 nM
same,EC50,Bel-7402 cells,227 nM
"N#CCCSC(=S)NC(c1ccccc1)c1cccnc1 (centres unmarked) [Compound 31, 2-cyanoethyl[phenyl(pyridin-3-yl)methyl]dithiocarbamate]",EC50,[1],4.7 nM
same,EC50,Bel-7402 cells,234 nM
same,melting point,,118 to 120 °C
"CC(C)(C)C(=O)Nc1ccncc1CNC(=S)SCCC#N [Compound 17, 2-cyanoethyl[(4-pivalamidopyridin-3-yl)methyl]dithiocarbamate]",EC50,[1],0.473 nM
same,EC50,Bel-7402 cells,32.3 nM
same,melting point,,122 to 124 °C
"N#CCCSC(=S)NCCCc1cccnc1 [Compound 42, 2-cyanoethyl[3-(pyridin-3-yl)propyl]dithiocarbamate]",EC50,[1],4.82 nM
same,EC50,Bel-7402 cells,3.48 nM
same,melting point,,81 to 83 °C
"Cc1c(CNC(=S)SCCC#N)cnn1-c1ccccc1 [Compound 35, 2-cyanoethyl[(5-methyl-1-phenyl-1H-pyrazol-4-yl)methyl]dithiocarbamate]",EC50,[1],6.05 nM
same,EC50,Bel-7402 cells,24.9 nM
"N#CCCSC(=S)Nc1cccnc1 [Compound 30, 2-cyanoethyl pyridin-3-yldithiocarbamate]",EC50,[1],80.7 nM
same,EC50,Bel-7402 cells,286 nM
"Cc1nc(-c2ccccc2)oc1CNC(=S)SCCC#N [Compound 34, 2-cyanoethyl[(4-methyl-2-phenyloxazol-5-yl)methyl]dithiocarbamate]",EC50,[1],7.88 nM
same,EC50,Bel-7402 cells,17.9 nM
same,melting point,,221 to 224 °C
"N#CCCSC(=S)NCc1cncc(Br)c1 [Compound 24, 2-cyanoethyl[(5-bromopyridin-3-yl)methyl]dithiocarbamate]",EC50,[1],4.91 nM
same,EC50,Bel-7402 cells,20.5 nM
same,melting point,,102 to 108 °C
"COc1cncc(CNC(=S)SCCC#N)c1 [Compound 23, 2-cyanoethyl[(5-methoxypyridin-3-yl)methyl]dithiocarbamate]",EC50,[1],0.557 nM
same,EC50,Bel-7402 cells,10.3 nM
same,melting point,,86 to 90 °C
"N#CCCSC(=S)NCc1ccncc1 [Compound 28, 2-cyanoethyl(pyridin-4-ylmethyl)dithiocarbamate]",EC50,[1],56.5 nM
same,EC50,Bel-7402 cells,10.5 nM
"N#CCCSC(=S)NCc1nccs1 [Compound 38, 2-cyanoethyl(thiazol-2-ylmethyl)dithiocarbamate]",EC50,[1],109 nM
same,EC50,Bel-7402 cells,296 nM
same,melting point,,76 to 78 °C
"N#CCCSC(=S)NCc1cnc2ccccc2c1 [Compound 18, 2-cyanoethyl(quinolin-3-ylmethyl)dithiocarbamate]",EC50,[1],5.18 nM
same,EC50,Bel-7402 cells,327 nM
same,melting point,,120 to 122 °C
"N#CCCSC(=S)NCCc1cccnc1 [Compound 19, 2-cyanoethyl[2-(pyridin-3-yl)ethyl]dithiocarbamate]",EC50,[1],0.796 nM
same,EC50,Bel-7402 cells,18.8 nM
"CN1CCOC2C=C(CNC(=S)SCCC#N)C=NC21 (centres unmarked) [Compound 26, 2-cyanoethyl[(4-methyl-3,4,4a,8a-tetrahydro-2/4-pyrido[3,2-b][1 ,4]oxazin-7-yl)-methyl]dithiocarbamate]",EC50,[1],82.2 nM
same,EC50,Bel-7402 cells,96.4 nM
same,melting point,,117 to 118 °C

# Reference: patent publication US20130136794A1, “HETEROARYL (ALKYL) DITHIOCARBAMATE COMPOUNDS, PREPARATION METHODS AND USES THEREOF” (PEKING UNIVERSITY, priority 2010, published 2013)
